Assay results reported in US6559154B2 (priority 2000, dated 2003).

What was measured:
rats = settings: rat, in vivo
[1] = cited from earlier work

N=C1NC(O)C2C3OC4(O)OC(C(O)C2(N1)C4O)C3(O)CO (stereo not shown) [TTX, octahydro-12-(hydroxymethyl)-2-imino-5,9:7,10a-dimethano-10aH-(1,3)dioxocino(6,5-d)-pyrimidine-4,7,10,11, 12-pentol]
effective dosage (rats): 2.5 µg/mg | solubility in acidic aqueous solution [1]: soluble | solubility in organic solvents [1]: not soluble | solubility in water [1]: only slightly soluble
